Test results from article PMC5218480 (PLoS ONE, 2017).

Test system: MV-4-11 cells
Test: Gene expression microarray analysis (Affymetrix PrimeView) and GSEA
Format: cell-based, human
Parameters: RFU PODN (11730768_x_at) / Fold change /veh PODN (11730768_x_at) / RFU LINC00158 (11744669_a_at) / Fold change /veh LINC00158 (11744669_a_at) / RFU DUSP10 (11751237_a_at) / Fold change /veh DUSP10 (11751237_a_at) / RFU ID3 (11757404_x_at) / Fold change /veh ID3 (11757404_x_at) / RFU PLEKHG5 (11737974_s_at) / Fold change /veh PLEKHG5 (11737974_s_at) / RFU LRRC4B (11730491_at) / Fold change /veh LRRC4B (11730491_at) / RFU GIMAP4 (11747438_a_at) / Fold change /veh GIMAP4 (11747438_a_at) / RFU KRT8 (11758183_x_at) / Fold change /veh KRT8 (11758183_x_at) / RFU CNN1 (11734310_a_at) / Fold change /veh CNN1 (11734310_a_at) / RFU VPS37D (11726825_at) / Fold change /veh VPS37D (11726825_at) / RFU C10orf10 (11716522_x_at) / Fold change /veh C10orf10 (11716522_x_at) / RFU KIR2DL2 /// KIR2DL4 /// KIR2DL5A /// KIR2DL5B /// KIR2DS1 /// KIR2DS2 /// KIR2DS3 /// KIR2DS4 /// KIR3DL3 /// KIR3DL3 /// KIR3DS1 (11738374_at) / Fold change /veh KIR2DL2 /// KIR2DL4 /// KIR2DL5A /// KIR2DL5B /// KIR2DS1 /// KIR2DS2 /// KIR2DS3 /// KIR2DS4 /// KIR3DL3 /// KIR3DL3 /// KIR3DS1 (11738374_at) / RFU C1QL1 (11718748_at) / Fold change /veh C1QL1 (11718748_at) / RFU TMPRSS4 (11747572_a_at) / Fold change /veh TMPRSS4 (11747572_a_at) / RFU HAMP (11756126_x_at) / Fold change /veh HAMP (11756126_x_at) / RFU RNFT2 (11725882_a_at) / Fold change /veh RNFT2 (11725882_a_at) / RFU NR4A2 (11747474_a_at) / Fold change /veh NR4A2 (11747474_a_at) / RFU ABCC12 (11746883_a_at) / Fold change /veh ABCC12 (11746883_a_at) / RFU TMEM136 (11760407_x_at) / Fold change /veh TMEM136 (11760407_x_at) / RFU CLDN22 /// WWC2 (11732394_at) / Fold change /veh CLDN22 /// WWC2 (11732394_at) / RFU HLA-DPB1 (11760878_x_at) / Fold change /veh HLA-DPB1 (11760878_x_at) / RFU SPINT1 (11716480_a_at) / Fold change /veh SPINT1 (11716480_a_at) / RFU GAP43 (11754022_s_at) / Fold change /veh GAP43 (11754022_s_at) / RFU A4GNT (11735810_at) / Fold change /veh A4GNT (11735810_at) / RFU PRB3 (11715151_x_at) / Fold change /veh PRB3 (11715151_x_at) / RFU TUBB4B (11761932_at) / Fold change /veh TUBB4B (11761932_at) / RFU CAPN14 (11732068_a_at) / Fold change /veh CAPN14 (11732068_a_at) / RFU TMCC2 (11721928_a_at) / Fold change /veh TMCC2 (11721928_a_at) / RFU IRGQ (11745062_a_at) / Fold change /veh IRGQ (11745062_a_at) / RFU FAM174B (11720279_a_at) / Fold change /veh FAM174B (11720279_a_at) / RFU TMPRSS4 (11748680_a_at) / Fold change /veh TMPRSS4 (11748680_a_at) / RFU FAM212B (11763350_a_at) / Fold change /veh FAM212B (11763350_a_at) / RFU PLEKHG5 (11743358_a_at) / Fold change /veh PLEKHG5 (11743358_a_at) / RFU ZSCAN30 (11745921_a_at) / Fold change /veh ZSCAN30 (11745921_a_at) / RFU CMKLR1 (11741424_a_at) / Fold change /veh CMKLR1 (11741424_a_at) / RFU LOC101060620 /// MAPK8IP1 (11723275_at) / Fold change /veh LOC101060620 /// MAPK8IP1 (11723275_at) / RFU SPTSSB (11747773_x_at) / Fold change /veh SPTSSB (11747773_x_at) / RFU PRSS12 (11739890_at) / Fold change /veh PRSS12 (11739890_at) / RFU BIN1 (11741810_x_at) / Fold change /veh BIN1 (11741810_x_at) / RFU WNT11 (11732464_a_at) / Fold change /veh WNT11 (11732464_a_at) / RFU C10orf10 (11716521_a_at) / Fold change /veh C10orf10 (11716521_a_at) / RFU C5orf56 (11738089_at) / Fold change /veh C5orf56 (11738089_at) / RFU CYB561 (11721691_x_at) / Fold change /veh CYB561 (11721691_x_at) / RFU ANKRD19P (11752326_a_at) / Fold change /veh ANKRD19P (11752326_a_at) / RFU OR2T12 /// OR2T33 /// OR2T8 (11738714_s_at) / Fold change /veh OR2T12 /// OR2T33 /// OR2T8 (11738714_s_at) / RFU VCAN (11748164_a_at) / Fold change /veh VCAN (11748164_a_at) / RFU JSRP1 (11732532_at) / Fold change /veh JSRP1 (11732532_at) / RFU KRTAP10-11 (11738290_x_at) / Fold change /veh KRTAP10-11 (11738290_x_at) / RFU MYO3A (11730013_a_at) / Fold change /veh MYO3A (11730013_a_at) / RFU EBF3 (11725865_a_at) / Fold change /veh EBF3 (11725865_a_at) / RFU CAMK2N1 (11719241_x_at) / Fold change /veh CAMK2N1 (11719241_x_at) / RFU C5orf56 (11738088_a_at) / Fold change /veh C5orf56 (11738088_a_at) / RFU OLFML3 (11715873_a_at) / Fold change /veh OLFML3 (11715873_a_at) / RFU LOC100653217 /// NTM (11731650_a_at) / Fold change /veh LOC100653217 /// NTM (11731650_a_at) / RFU MAPK11 (11762145_a_at) / Fold change /veh MAPK11 (11762145_a_at) / RFU FIZ1 (11724087_x_at) / Fold change /veh FIZ1 (11724087_x_at) / RFU OASL (11726364_x_at) / Fold change /veh OASL (11726364_x_at) / RFU SOX15 (11748057_x_at) / Fold change /veh SOX15 (11748057_x_at) / RFU CD79A (11719716_a_at) / Fold change /veh CD79A (11719716_a_at) / RFU HIST1H1D (11736915_at) / Fold change /veh HIST1H1D (11736915_at) / RFU CASKIN2 (11723855_a_at) / Fold change /veh CASKIN2 (11723855_a_at) / RFU LOC730098 (11760151_x_at) / Fold change /veh LOC730098 (11760151_x_at) / RFU OR4N2 (11742367_at) / Fold change /veh OR4N2 (11742367_at) / RFU PRRT2 (11749266_a_at) / Fold change /veh PRRT2 (11749266_a_at) / RFU SNX32 (11753110_a_at) / Fold change /veh SNX32 (11753110_a_at) / RFU CDHR5 (11726645_a_at) / Fold change /veh CDHR5 (11726645_a_at) / RFU RCAN1 (11760418_a_at) / Fold change /veh RCAN1 (11760418_a_at) / RFU FAM167A (11723789_a_at) / Fold change /veh FAM167A (11723789_a_at) / RFU FAM26E (11764081_at) / Fold change /veh FAM26E (11764081_at) / RFU ISYNA1 (11749810_s_at) / Fold change /veh ISYNA1 (11749810_s_at) / RFU ACY1 (11761880_at) / Fold change /veh ACY1 (11761880_at) / RFU 11764098_at / Fold change /veh 11764098_at / RFU SAMD14 (11745864_x_at) / Fold change /veh SAMD14 (11745864_x_at) / RFU NPB (11741838_a_at) / Fold change /veh NPB (11741838_a_at) / RFU TMPRSS6 (11731388_a_at) / Fold change /veh TMPRSS6 (11731388_a_at) / RFU KRTAP10-2 (11738614_at) / Fold change /veh KRTAP10-2 (11738614_at) / RFU ARHGAP8 /// PRR5-ARHGAP8 (11727945_x_at) / Fold change /veh ARHGAP8 /// PRR5-ARHGAP8 (11727945_x_at) / RFU KRTAP5-7 /// NADSYN1 (11734609_at) / Fold change /veh KRTAP5-7 /// NADSYN1 (11734609_at) / RFU RASL12 (11751679_a_at) / Fold change /veh RASL12 (11751679_a_at) / RFU CDKN2B (11736163_a_at) / Fold change /veh CDKN2B (11736163_a_at) / RFU PRF1 (11729649_at) / Fold change /veh PRF1 (11729649_at) / RFU, ZNF638 /// ZNF638-IT1 / Fold change vs veh, ZNF638 /// ZNF638-IT1 / RFU, PANK3 / Fold change vs veh, PANK3 / RFU, SH3YL1 / Fold change vs veh, SH3YL1 / RFU, ZEB2 / Fold change vs veh, ZEB2 / RFU, NRIP1 / Fold change vs veh, NRIP1 / RFU, PTTG1IP / Fold change vs veh, PTTG1IP / RFU, CAPN2 / Fold change vs veh, CAPN2 / RFU, MED14 / Fold change vs veh, MED14 / RFU, SNORA58 / Fold change vs veh, SNORA58 / RFU, C1orf63 / Fold change vs veh, C1orf63 / RFU, LRRFIP1 / Fold change vs veh, LRRFIP1 / RFU, NDUFAF7 / Fold change vs veh, NDUFAF7 / RFU, SLC12A2 / Fold change vs veh, SLC12A2 / RFU, IBTK / Fold change vs veh, IBTK / RFU, ESF1 / Fold change vs veh, ESF1 / Fold change vs veh, TMEM50B / RFU, TAOK1 / Fold change vs veh, TAOK1 / RFU, ACBD3 / Fold change vs veh, ACBD3 / RFU, TMA16 / Fold change vs veh, TMA16 / RFU, RWDD3 / Fold change vs veh, RWDD3 / RFU, BCAT1 / Fold change vs veh, BCAT1 / RFU, EDEM3 / Fold change vs veh, EDEM3 / RFU, TMEM33 / Fold change vs veh, TMEM33 / RFU, WDR75 / Fold change vs veh, WDR75 / RFU, AHCTF1 / Fold change vs veh, AHCTF1 / RFU, TFRC / Fold change vs veh, TFRC / RFU, ZDHHC17 / Fold change vs veh, ZDHHC17 / RFU, NOM1 / Fold change vs veh, NOM1 / RFU, ARL8B / Fold change vs veh, ARL8B / RFU, ZBTB11 / Fold change vs veh, ZBTB11 / RFU, TAMM41 / Fold change vs veh, TAMM41 / RFU, KIAA1704 /// LOC100996395 / Fold change vs veh, KIAA1704 /// LOC100996395 / RFU, ING1 / Fold change vs veh, ING1 / RFU, TRMT61B / Fold change vs veh, TRMT61B / RFU, FUBP3 / Fold change vs veh, FUBP3 / RFU, TP53 / Fold change vs veh, TP53 / RFU, TNKS2 / Fold change vs veh, TNKS2 / RFU, ZFP14 / Fold change vs veh, ZFP14 / RFU, ACTR2 / Fold change vs veh, ACTR2 / RFU, PPP3R1 / Fold change vs veh, PPP3R1 / RFU, PIK3R1 / Fold change vs veh, PIK3R1 / RFU, HNRNPA1 / Fold change vs veh, HNRNPA1 / RFU, RNF170 / Fold change vs veh, RNF170 / RFU, ZNF28 / Fold change vs veh, ZNF28 / RFU, RNGTT / Fold change vs veh, RNGTT / RFU, OGT / Fold change vs veh, OGT / RFU, BRD1 / Fold change vs veh, BRD1 / RFU, MARS / Fold change vs veh, MARS / RFU, ZNF655 / Fold change vs veh, ZNF655 / RFU, FAHD1 / Fold change vs veh, FAHD1 / RFU, BDP1 / Fold change vs veh, BDP1 / RFU, LRRCC1 / Fold change vs veh, LRRCC1 / RFU, ARID1A / Fold change vs veh, ARID1A / RFU, ZNF146 / Fold change vs veh, ZNF146 / RFU, ZNF330 / Fold change vs veh, ZNF330 / RFU, GPN3 / Fold change vs veh, GPN3 / RFU, C9orf123 / Fold change vs veh, C9orf123 / RFU, N4BP2L2 / Fold change vs veh, N4BP2L2 / RFU, ARFIP1 / Fold change vs veh, ARFIP1 / RFU, FAM179B / Fold change vs veh, FAM179B / RFU, BCL10 / Fold change vs veh, BCL10 / RFU, UHRF1BP1L / Fold change vs veh, UHRF1BP1L / RFU, BET1 / Fold change vs veh, BET1 / RFU, CNOT2 / Fold change vs veh, CNOT2 / RFU, ZNF268 / Fold change vs veh, ZNF268 / Fold change vs veh, ZNF507 / RFU, DGCR2 / Fold change vs veh, DGCR2 / RFU, WDSUB1 / Fold change vs veh, WDSUB1 / Fold change vs veh, HSP90B1 /// MIR3652 / RFU, ADSS / Fold change vs veh, ADSS / RFU, GK / Fold change vs veh, GK / RFU, ZNF148 / Fold change vs veh, ZNF148 / RFU, TAF9 / Fold change vs veh, TAF9 / RFU, SLC1A5 / Fold change vs veh, SLC1A5 / RFU, SLMO2 / Fold change vs veh, SLMO2 / RFU, ABCC4 / Fold change vs veh, ABCC4 / RFU, LOC101060439 /// RAP1B / Fold change vs veh, LOC101060439 /// RAP1B / RFU, RFX7 / Fold change vs veh, RFX7 / RFU, GTPBP10 / Fold change vs veh, GTPBP10 / RFU, CNEP1R1 / Fold change vs veh, CNEP1R1 / RFU, BIVM-ERCC5 /// ERCC5 / Fold change vs veh, BIVM-ERCC5 /// ERCC5 / RFU, ILF3 / Fold change vs veh, ILF3 / RFU 11762660_at / Fold change /veh 11762660_at / RFU VCAN (11757783_s_at) / Fold change /veh VCAN (11757783_s_at) / RFU DDX43 (11728927_at) / Fold change /veh DDX43 (11728927_at) / RFU KRT8 (11758188_x_at) / Fold change /veh KRT8 (11758188_x_at) / RFU NKD1 (11759106_at) / Fold change /veh NKD1 (11759106_at) / RFU SRD5A1 (11742802_a_at) / Fold change /veh SRD5A1 (11742802_a_at) / RFU TPSAB1 /// TPSB2 (11721975_s_at) / Fold change /veh TPSAB1 /// TPSB2 (11721975_s_at) / RFU GSTM3 (11746129_a_at) / Fold change /veh GSTM3 (11746129_a_at) / RFU IL23R (11737362_x_at) / Fold change /veh IL23R (11737362_x_at) / RFU TMEM51 (11727254_a_at) / Fold change /veh TMEM51 (11727254_a_at) / RFU PIWIL2 (11732686_x_at) / Fold change /veh PIWIL2 (11732686_x_at) / RFU ORM1 (11744905_x_at) / Fold change /veh ORM1 (11744905_x_at) / RFU CCDC152 (11743942_at) / Fold change /veh CCDC152 (11743942_at) / RFU ECM1 (11717891_a_at) / Fold change /veh ECM1 (11717891_a_at) / RFU IL23R (11748794_a_at) / Fold change /veh IL23R (11748794_a_at) / RFU TNFAIP8L3 (11732012_x_at) / Fold change /veh TNFAIP8L3 (11732012_x_at) / RFU MBOAT4 (11741988_at) / Fold change /veh MBOAT4 (11741988_at) / RFU 11764193_at / Fold change /veh 11764193_at / RFU TMEM53 (11763286_at) / Fold change /veh TMEM53 (11763286_at) / RFU MAGEB2 (11727129_at) / Fold change /veh MAGEB2 (11727129_at) / RFU TMEM200A (11744735_a_at) / Fold change /veh TMEM200A (11744735_a_at) / RFU CCDC152 (11751479_a_at) / Fold change /veh CCDC152 (11751479_a_at) / RFU FAM211A (11726209_a_at) / Fold change /veh FAM211A (11726209_a_at) / RFU RGS16 (11746705_a_at) / Fold change /veh RGS16 (11746705_a_at) / RFU VCAN (11755009_s_at) / Fold change /veh VCAN (11755009_s_at) / RFU RHOB (11743442_s_at) / Fold change /veh RHOB (11743442_s_at) / RFU RGS16 (11720943_a_at) / Fold change /veh RGS16 (11720943_a_at) / RFU RGS16 (11720944_at) / Fold change /veh RGS16 (11720944_at) / RFU, VPS4B / Fold change vs veh, VPS4B / RFU, CREB1 / Fold change vs veh, CREB1 / RFU, DNAJC13 / Fold change vs veh, DNAJC13 / RFU, GNAQ / Fold change vs veh, GNAQ / RFU, CDK5R1 / Fold change vs veh, CDK5R1 / RFU, ZRANB3 / Fold change vs veh, ZRANB3 / RFU, CUL4A / Fold change vs veh, CUL4A / RFU, CCNY / Fold change vs veh, CCNY / RFU, UFL1 / Fold change vs veh, UFL1 / RFU, COG3 / Fold change vs veh, COG3 / RFU, DIAPH2 / Fold change vs veh, DIAPH2 / RFU, SKA2 / Fold change vs veh, SKA2 / RFU, AFF3 / Fold change vs veh, AFF3 / RFU, LMF1 / Fold change vs veh, LMF1 / RFU, IPO11 / Fold change vs veh, IPO11 / RFU, DFFB / Fold change vs veh, DFFB / RFU, FOXP1 / Fold change vs veh, FOXP1 / RFU, CARD8 / Fold change vs veh, CARD8 / RFU, STRN3 / Fold change vs veh, STRN3 / RFU, ADK / Fold change vs veh, ADK / RFU, RASSF2 / Fold change vs veh, RASSF2 / RFU, WIPF1 / Fold change vs veh, WIPF1 / RFU, LARP1B / Fold change vs veh, LARP1B / RFU, RASA1 / Fold change vs veh, RASA1 / RFU, RB1 / Fold change vs veh, RB1 / RFU, PPFIA1 / Fold change vs veh, PPFIA1 / RFU, MAT2A / Fold change vs veh, MAT2A / RFU, CCT5 / Fold change vs veh, CCT5 / RFU, WDR92 / Fold change vs veh, WDR92 / RFU, CUX1 / Fold change vs veh, CUX1 / RFU, TTC7A / Fold change vs veh, TTC7A / RFU, TMEM135 / Fold change vs veh, TMEM135 / RFU, DEPTOR / Fold change vs veh, DEPTOR / RFU, CPM / Fold change vs veh, CPM / RFU, DNAJB6 / Fold change vs veh, DNAJB6 / RFU, CACNA2D3 / Fold change vs veh, CACNA2D3 / RFU, DTX4 / Fold change vs veh, DTX4 / RFU, TFCP2 / Fold change vs veh, TFCP2 / RFU, GMCL1 /// GMCL1P1 / Fold change vs veh, GMCL1 /// GMCL1P1 / RFU, AEBP2 / Fold change vs veh, AEBP2 / RFU, SNHG1 /// SNORD22 /// SNORD25 /// SNORD26 /// SNORD27 /// SNORD28 /// SNORD29 /// SNORD31 / Fold change vs veh, SNHG1 /// SNORD22 /// SNORD25 /// SNORD26 /// SNORD27 /// SNORD28 /// SNORD29 /// SNORD31 / Fold change (Aza/veh), C12orf56 (ProbeSet 11735607_a_at) / Fold change (ACY-1035/veh), C12orf56 (ProbeSet 11735607_a_at) / Fold change (Aza/veh), FGFR1OP (ProbeSet 11751329_s_at) / Fold change (ACY-1035/veh), FGFR1OP (ProbeSet 11751329_s_at) / Fold change (Aza/veh), VPS36 (ProbeSet 11739960_a_at) / Fold change (ACY-1035/veh), VPS36 (ProbeSet 11739960_a_at) / RFU SYPL1 (11715823_x_at) / Fold change /veh SYPL1 (11715823_x_at) / RFU IGFBP7 (11715501_s_at) / Fold change /veh IGFBP7 (11715501_s_at) / RFU REEP3 (11722064_at) / Fold change /veh REEP3 (11722064_at) / RFU IGLL1 (11728026_x_at) / Fold change /veh IGLL1 (11728026_x_at): dose or concentration left out as unconfirmed
Conditions: MV-4-11 cells, 48 hours

Question: With `Nc1ccc(-c2cccs2)cc1NC(=O)c1ccc2c(c1)cc(C1CC1)n2CCN1CCOCC1` [ACY-1035] as the molecule, how does the “RFU ECM1 (11717891_a_at)” value read?
Answer: Its value is 18.49 RFU.
